Experimental data: US6506772B1, “Substituted [1,2,4]triazolo[1,5a]pyridine derivatives with activity as adenosine receptor ligands” (Hoffmann-La Roche Inc., priority 2000, dated 2003)
Where two headings read alike, the source gives them in different places.

Legend:
[1] = molecular target: T1, HA1 adenosine receptor (Homo sapiens, UniProt P30542); test: Human adenosine A1 receptor affinity (Ki hA1); type: binding
T1 sequence (P30542 1-326): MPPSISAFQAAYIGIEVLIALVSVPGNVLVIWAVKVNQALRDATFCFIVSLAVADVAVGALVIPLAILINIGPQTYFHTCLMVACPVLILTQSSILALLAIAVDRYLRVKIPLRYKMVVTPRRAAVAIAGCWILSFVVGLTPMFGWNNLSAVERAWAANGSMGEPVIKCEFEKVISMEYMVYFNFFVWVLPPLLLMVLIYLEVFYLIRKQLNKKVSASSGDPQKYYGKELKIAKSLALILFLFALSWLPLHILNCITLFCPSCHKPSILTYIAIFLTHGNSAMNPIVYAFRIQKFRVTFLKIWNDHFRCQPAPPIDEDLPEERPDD

[2] = molecular target: T2, human adenosine A2A receptor (Homo sapiens, UniProt P29274); test: Human adenosine A2A receptor [3H]-SCH-58261 binding assay
T2 construct: expressed in transfected cells; host or cells: CHO cells, Semliki Forest virus expression system; membrane preparation
T2 sequence (P29274 whole entry): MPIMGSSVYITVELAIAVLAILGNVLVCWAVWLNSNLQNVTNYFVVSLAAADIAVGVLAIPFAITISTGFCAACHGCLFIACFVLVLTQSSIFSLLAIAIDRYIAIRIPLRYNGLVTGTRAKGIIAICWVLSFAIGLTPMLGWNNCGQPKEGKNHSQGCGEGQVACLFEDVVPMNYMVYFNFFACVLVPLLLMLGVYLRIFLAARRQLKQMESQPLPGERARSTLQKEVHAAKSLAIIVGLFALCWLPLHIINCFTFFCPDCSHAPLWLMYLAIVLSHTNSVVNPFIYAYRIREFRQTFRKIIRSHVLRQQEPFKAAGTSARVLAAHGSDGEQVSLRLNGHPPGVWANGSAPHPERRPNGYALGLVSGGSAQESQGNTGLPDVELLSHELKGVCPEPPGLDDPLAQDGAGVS

[3] = affinity to human adenosine A1 receptor
[4] = affinity to human adenosine A2A receptor, read-out: Ki HA2A
[5] = calculated ratio of the affinity to the HA1 receptor to the HA2a receptor
[6] = recombinant human A2A in CHO cell membranes, [3H]-SCH-58261, Cheng-Prussoff, read-out: Ki hA2A

| SMILES | Ki [1, 3] | Ki [2, 4] | selectivity (A1/A2a) [2, 5] | Ki [1] | selectivity (A1/A2a) ([2]; ratio KiHA1 divided by KiHA2A) | Ki [2, 6] |
| --- | --- | --- | --- | --- | --- | --- |
| COc1ccc(-c2nc3cc(C(=O)N(C)CCc4ccccc4)cc(N)n3n2)s1 [Example 77, 5-Amino-2-(5-methoxy-thiophen-2-yl)-[1,2,4]triazolo[1,5-a]pyridine-7-carboxylic acid methyl-phenethyl-amide] | 295 nM | 116 nM | 2.5 |  |  |  |
| COCCN(C)C(=O)c1cc(N)n2nc(-c3ccc(Br)o3)nc2c1 [Example 395, 5-Amino-2-(5-bromo-furan-2-yl)-[1,2,4]triazolo[1,5-a]pyridine-7-carboxylic acid (2-methoxy-ethyl)-methyl-amide] |  |  |  | 295 nM | 44 | 6.7 nM |
| Nc1cc(C(=O)N2CCCCCC2)cc2nc(-c3nccs3)nn12 [Example 317, (5-Amino-2-thiazol-2-yl-[1,2,4]triazolo[1,5-a]pyridin-7-yl)-azepan-1-yl-methanone] | 1160 nM | 34.5 nM | 33.6 |  |  |  |
| C=CCN(C(=O)c1cc(N)n2nc(-c3ccccn3)nc2c1)C1CCCC1 [Example 429, 5-Amino-2-pyridin-2-yl-[1,2,4]triazolo[1,5-a]pyridine-7-carboxylic acid allyl-cyclopentyl-amide] |  |  |  | 474 nM | 15.3 | 31 nM |
| CCN(CC)C(=O)c1cc(N)n2nc(-c3ccoc3)nc2c1 [Example 153, 5-Amino-2-furan-3-yl-[1,2,4]triazolo[1,5-a]pyridine-7-carboxylic acid diethylamide] | 4800 nM | 301 nM | 16.0 |  |  |  |
| Nc1cc(C(=O)N2CC=CC2)cc2nc(-c3ccc(Br)o3)nn12 [Example 265, [5-Amino-2-(5-bromo-furan-2-yl)-[1,2,4]triazolo[1,5-a]pyridin-7-yl]-(2,5-dihydro-pyrrol-1-yl)-methanone] | 564 nM | 7.4 nM | 76.2 |  |  |  |
| Nc1cc(C(=O)N2CCc3c([nH]c4ccccc34)C2)cc2nc(-c3ccc(Br)o3)nn12 [Example 355, [5-Amino-2-(5-bromo-furan-2-yl)-[1,2,4]triazolo[1,5-a]pyridin-7-yl]-(1,3,4,9-tetrahydro-b-carbolin-2-yl)-methanone] | 286 nM | 47 nM | 6.1 |  |  |  |
| C=CCN(CC=C)C(=O)c1cc(N)n2nc(-c3ccccn3)nc2c1 [Example 416, 5-Amino-2-pyridin-2-yl-[1,2,4]triazolo[1,5-a]pyridine-7-carboxylic acid diallylamide] |  |  |  | 835 nM | 17.4 | 48.1 nM |
| CCN(CC)C(=O)c1cc(N)n2nc(-c3sccc3C)nc2c1 [Example 185, 5-Amino-2-(3-methyl-thiophen-2-yl)-[1,2,4]triazolo[1,5-a]pyridine-7-carboxylic acid diethylamide] | 1420 nM | 238 nM | 6.0 |  |  |  |
| Nc1cc(C(=O)N2CCCCC2)cc2nc(-c3ccc(Cl)o3)nn12 [Example 236, [5-Amino-2-(5-chloro-furan-2-yl)-[1,2,4]triazolo[1,5-a]pyridin-7-yl]-piperidin-1-yl-methanone] | 325 nM | 9.2 nM | 35.2 |  |  |  |
| COc1cc(CNC(=O)c2cc(N)n3nc(-c4ccc(Br)o4)nc3c2)cc(OC)c1OC [Example 133, 5-Amino-2-(5-bromo-furan-2-yl)-[1,2,4]triazolo[1,5-a]pyridine-7-carboxylic acid 3,4,5-trimethoxy-benzylamide] | 1940 nM | 146 nM | 13.3 |  |  |  |
| Nc1cc(C(=O)N2CCCC2)cc2nc(-c3ccccc3O)nn12 [Example 118, [5-Amino-2-(2-hydroxy-phenyl)-[1,2,4]triazolo[1,5-a]pyridin-7-yl]-pyrrolidin-1-yl-methanone] | 1960 nM | 126 nM | 15.5 |  |  |  |
| Nc1cc(C(=O)N2CCCCCCC2)cc2nc(-c3nccs3)nn12 [Example 332, (5-Amino-2-thiazol-2-yl-[1,2,4]triazolo[1,5-a]pyridin-7-yl)-azocan-1-yl-methanone] | 844 nM | 17.2 nM | 49.1 |  |  |  |
| CN(C(=O)c1cc(N)n2nc(-c3ccoc3)nc2c1)C1CCCCC1 [Example 222, 5-Amino-2-furan-3-yl-[1,2,4]triazolo[1,5-a]pyridine-7-carboxylic acid cyclohexyl-methyl-amide] | 2050 nM | 241 nM | 8.5 |  |  |  |
| Nc1cc(C(=O)NC2CCCCC2)cc2nc(-c3ccc(Br)o3)nn12 [Example 165, 5-Amino-2-(5-bromo-furan-2-yl)-[1,2,4]triazolo[1,5-a]pyridine-7-carboxylic acid cyclohexylamide] | 770 nM | 88.8 nM | 8.7 |  |  |  |
| Nc1cc(C(=O)NC2CCCCC2)cc2nc(-c3nccs3)nn12 [Example 123, 5-Amino-2-thiazol-2-yl-[1,2,4]triazolo[1,5-a]pyridine-7-carboxylic acid cyclohexylamide] | 698 nM | 43.5 nM | 16.0 |  |  |  |
| C[C@@H]1CCC[C@H](C)N1C(=O)c1cc(N)n2nc(-c3nccs3)nc2c1 [Example 358, (5-Amino-2-thiazol-2-yl-[1,2,4]triazolo[1,5-a]pyridin-7-yl)-(cis-2,6-dimethyl-piperidin-1-yl)-methanone] | 1720 nM | 74.7 nM | 23.0 |  |  |  |
| CCN(C(=O)c1cc(N)n2nc(-c3ccccn3)nc2c1)C(C)C [Example 414, 5-Amino-2-pyridin-2-yl-[1,2,4]triazolo[1,5-a]pyridine-7-carboxylic acid ethyl-isopropyl-amide] |  |  |  | 885 nM | 15.8 | 56 nM |

More lines, in order of falling Ki [1, 3], values ahead:

| Ki [1, 3] | Ki [2, 4] | selectivity (A1/A2a) [2, 5] | Ki [1] | selectivity (A1/A2a) ([2]; ratio KiHA1 divided by KiHA2A) | Ki [2, 6] | SMILES |
| --- | --- | --- | --- | --- | --- | --- |
| 276 nM | 9.5 nM | 28.9 |  |  |  | Nc1cc(C(=O)N2CC=CCC2)cc2nc(-c3ccc(Cl)o3)nn12 [Example 253] |
| 246 nM | 56.3 nM | 4.4 |  |  |  | CCN(C(=O)c1cc(N)n2nc(-c3ccc(C)s3)nc2c1)C(C)C [Example 194, 5-Amino-2-(5-methyl-thiophen-2-yl)-[1,2,4]triazolo[1,5-a]pyridine-7-carboxylic acid ethyl-isopropyl-amide] |
| 204 nM | 49.9 nM | 4.1 |  |  |  | Nc1cc(C(=O)NCCc2ccccc2F)cc2nc(-c3ccccn3)nn12 [Example 40, 5-Amino-2-pyridin-2-yl-[1,2,4]triazolo[1,5-a]pyridine-7-carboxylic acid [2-(2-fluoro-phenyl)-ethyl]-amide] |
| 200 nM | 3.1 nM | 64.4 |  |  |  | CCCN(CCC)C(=O)c1cc(N)n2nc(-c3ccc(Br)o3)nc2c1 [Example 338, 5-Amino-2-(5-bromo-furan-2-yl)-[1,2,4]triazolo[1,5-a]pyridine-7-carboxylic acid dipropylamide] |
| 178 nM | 9.2 nM | 19.2 |  |  |  | Cc1ccc(-c2nc3cc(C(=O)N(Cc4ccccc4)C(C)C)cc(N)n3n2)s1 [Example 117, 5-Amino-2-(5-methyl-thiophen-2-yl)-[1,2,4]triazolo[1,5-a]pyridine-7-carboxylic acid benzyl-isopropyl-amide] |
| 149 nM | 64.1 nM | 2.3 |  |  |  | Nc1cc(C(=O)NCc2ccccc2)cc2nc(-c3ccccc3)nn12 [Example 216, 5-Amino-2-phenyl-[1,2,4]triazolo[1,5-a]pyridine-7-carboxylic acid benzylamide] |
| 139 nM | 5.2 nM | 26.8 |  |  |  | COCCN(CCOC)C(=O)c1cc(N)n2nc(-c3ccc(Br)o3)nc2c1 [Example 305, 5-Amino-2-(5-bromo-furan-2-yl)-[1,2,4]triazolo[1,5-a]pyridine-7-carboxylic acid bis-(2-methoxy-ethyl)-amide] |
| 136 nM | 99.1 nM | 1.4 |  |  |  | CCCCNC(=O)c1cc(N)n2nc(-c3ccc(OC)s3)nc2c1 [Example 67, 5-Amino-2-(5-methoxy-thiophen-2-yl)-[1,2,4]triazolo[1,5-a]pyridine-7-carboxylic acid butylamide] |
| 116 nM | 47.2 nM | 2.5 |  |  |  | Nc1cc(C(=O)NCc2ccccc2Cl)cc2nc(-c3ccccc3)nn12 [Example 218, 5-Amino-2-phenyl-[1,2,4]triazolo[1,5-a]pyridine-7-carboxylic acid 2-chloro-benzylamide] |
| 88.1 nM | 21.8 nM | 4.0 |  |  |  | COc1ccccc1CNC(=O)c1cc(N)n2nc(-c3ccccn3)nc2c1 [Example 41, 5-Amino-2-pyridin-2-yl-[1,2,4]triazolo[1,5-a]pyridine-7-carboxylic acid 2-methoxy-benzylamide] |
| 77.3 nM | 2.9 nM | 26.7 |  |  |  | CC(C)N(C(=O)c1cc(N)n2nc(-c3ccc(Br)o3)nc2c1)C1CCCCC1 [Example 351, 5-Amino-2-(5-bromo-furan-2-yl)-[1,2,4]triazolo[1,5-a]pyridine-7-carboxylic acid cyclohexyl-isopropyl-amide] |
| 47.3 nM | 365 nM | 0.1 |  |  |  | Cc1ccsc1-c1nc2cc(C(=O)NC(C)c3ccccc3)cc(N)n2n1 (stereo not drawn) [Example 190, 5-Amino-2-(3-methyl-thiophen-2-yl)-[1,2,4]triazolo[1,5-a]pyridine-7-carboxylic acid (1-phenyl-ethyl)-amide] |
